One molecule from US12653900B2, “Antibody drug conjugates comprising ecteinascidin derivatives” (PHARMA MAR, S.A., priority 2018, dated 2026) can be followed below.

Experiment [1] concerns HT-1080, NB 4, Raji and RPMI 8226 cells. The experiment is described as follows: In vitro cytotoxicity across the CD13 cell panel and CD13 selectivity. The class given is cell-based, human. The settings on record: Homo sapiens, CD13 positive and negative cell lines. From the text: (§1) Cell survival was expressed as percentage of control, untreated cell survival.
Experiment [2] deals with HT-1080 (CD13+). In words: In vitro cytotoxicity of ADCs and related reagents, MTT assay. The settings on record: Homo sapiens, read-out: IC50 HT-1080 (CD13 positive); HT-1080 cells; geometric mean of the IC50 values of three experiments. Format: cell-based.
Description: as §1

Experiment [3] relates to NB 4 (CD13+). The description is as above. Format: cell-based, human. The settings on record: Homo sapiens; NB-4 cells; geometric mean of the IC50 values of three experiments; read-out: IC50 NB-4 (CD13 positive). The method, then:
(§2) Briefly, cells were seeded in 96-well trays and treated as above and after 72 hours of exposure to the tested substances cellular viability was estimated from conversion of MTT (Sigma, St Louis, MO, USA) to its coloured reaction product, MTT-formazan, which was dissolved in DMSO to measure its absorbance at 540 nm in a microplate spectrophotometer.
as §1

In experiment [4] the test system is RPMI 8226 (CD13−). The experiment is described as above. Format: cell-based, human. The settings on record: Homo sapiens, RPMI-8226; RPMI8226 cells; geometric mean of the IC50 values of three experiments; read-out: IC50 RPMI8226 (CD13 negative). The method, then:
as §2, §1

The test system of experiment [5] is Raji (CD13−). Described as above. Format: cell-based, human. The settings on record: Homo sapiens; Raji cells; geometric mean of the IC50 values of three experiments; read-out: IC50 Raji (CD13 negative). The method, then: as §2, §1
The test system of experiment [6] is SK-BR-3, HCC-1954, MDA-MB-231 and MCF-7 cells. The experiment is described as follows: In vitro cytotoxicity across the HER2 breast cancer cell panel and HER2 selectivity. The settings on record: Homo sapiens. The class given is cell-based. The method, then:
For SK-BR-3, HCC-1954, MDA-MB-231 and MCF-7 cells, a colorimetric assay using Sulforhodamine B (SRB) was adapted for quantitative measurement of cell growth and cytotoxicity, as described in V. Vichai and K. Kirtikara. Sulforhodamine B colorimetric assay for cytotoxicity screening. Nature Protocols, 2006, 1, 1112-1116. Briefly, cells were seeded in 96-well microtiter plates and allowed to stand for 24 hours in drug-free medium before treatment with vehicle alone or with the tested substances for 72 hours.
as §1
Standard dose-response (DR) curves for 72 hours incubation with the tested substances were performed.

The subject of experiment [7] is MDA-MB-231 (HER2−). The experiment is described as follows: In vitro cytotoxicity of ADCs and related reagents, SRB assay. Format: cell-based. The settings on record: Homo sapiens; MDA-MB-231, HER2 negative, 72 hours; read-out: IC50. How it is done:
(§3) Sulforhodamine B colorimetric assay for cytotoxicity screening. […] Briefly, cells were seeded in 96-well microtiter plates and allowed to stand for 24 hours in drug-free medium before treatment with vehicle alone or with the tested substances for 72 hours.
as §1
On the technique in general: Sulforhodamine B stains cellular protein and so reports cell mass.

Experiment [8] deals with SK-BR-3 (HER2+). The description is as above. The class given is cell-based. The settings on record: Homo sapiens; SK-BR-3, HER2 positive, 72 hours; read-out: IC50. How it is done: as §3, §1
The subject of experiment [9] is HCC-1954 (HER2+). The experiment is described as above. Format: cell-based. The settings on record: Homo sapiens, HCC1954; HCC-1954, HER2 positive, 72 hours; read-out: IC50. The method, then: as §3, §1
[10] abbreviates: read-out: IC50 values, range over the four cell lines.
The mark [11] stands for this setting: read-out: geometric mean IC50 value across the whole cell panel.

Values joined by “and” are separate entries in the source; they are usually repeats but may differ in a detail not shown here. Equal entries are not always repeated. Where two headings read alike, the source gives them in different places.

The term IC50 denotes the point on the concentration scale where inhibition reaches its midpoint. `COc1c(C)cc2c(c1O)[C@@H]1[C@@H]3[C@@H]4SC[C@]5(N[C@@H](CN)Cc6c5[nH]c5ccccc65)C(=O)OC[C@@H](c5c6c(c(C)c(OC(C)=O)c54)OCO6)N3[C@@H](O)[C@H](C2)N1C` [12-R]: the IC50 is 0.0003 µg/mL to 0.0011 µg/mL and 0.421 nM to 1.4 nM in experiment [1] (setting [10]); 0.0006 µg/mL and 0.78 nM in experiment [1] (setting [11]); 0.0011 µg/mL and 1.4 nM in experiment [2]; 0.00033 µg/mL and 0.421 nM in experiment [3]; 0.00083 µg/mL and 1.06 nM in [4]; 0.00047 µg/mL and 0.6 nM in [5]. In addition, the IC50 in experiment [6] (setting [10]) is 0.0004 µg/mL to 0.0013 µg/mL and 0.562 nM to 1.62 nM; in experiment [6] (setting [11]) it was 0.00071 µg/mL and 0.906 nM; in experiment [7], 0.000493 µg/mL and 0.629 nM; in [8], 0.000441 µg/mL and 0.562 nM; in experiment [9], 0.00127 µg/mL and 1.62 nM.
